Measurements: paper PMC7073229, “Novel Quinoline Compounds Active in Cancer Cells through Coupled DNA Methyltransferase Inhibition and Degradation” (Cancers, 2020)

Columns and labels:
Experiment in all cases: Kinase inhibitory assay (panel)
Format in all cases: biochemical
Settings in all cases: read-out: % inhibition at 10 µM
PKA (h) = PKA (h) (Homo sapiens, UniProt P17612)
Protocol: (§1) Experimental procedure of kinase inhibitory assays
(§2) The test compound, reference compound or water (control) were mixed with the enzyme (for the exact amount see table below) in the appropriate buffer. Thereafter, the reaction was initiated by adding the required amount of the appropriate substrate and of ATP, and the mixture is incubated at room temperature (variable reaction time, see table below). For control basal measurements, the enzyme was omitted from the reaction mixture. Following incubation, the reaction was stopped by adding 13 mM
(§3) EDTA. After 5 min, the proper antibody labelled with europium chelate was added. After 60 more min, the fluorescence transfer was measured at λex=337 nm, λem=620 nm and λem=665 nm using a microplate reader (Envision, Perkin Elmer). The enzyme activity was determined by d ividing the signal measured at 665 nm by that measured at 620 nm (ratio). The results are expressed as a percent inhibition of the control enzyme activity. The standard inhibitory reference compound is staurosporine when not differently indicated (see tabl e below), which has been tested in each experiment at several concentrations to obtain an inhibition curve from which its IC 50 value is calculated.
(§4) • Assay volume and format: 10 µL in 384-well plate
(§5) • Compound addition: [100x] solution in solvent then [5x] solution in water • Maximum tolerable DMSO concentration: 1%

FGFR2 kinase (h) = FGFR2 kinase (h) (Homo sapiens, UniProt P21802)
Chain of FGFR2 kinase (h) (P21802 22-821): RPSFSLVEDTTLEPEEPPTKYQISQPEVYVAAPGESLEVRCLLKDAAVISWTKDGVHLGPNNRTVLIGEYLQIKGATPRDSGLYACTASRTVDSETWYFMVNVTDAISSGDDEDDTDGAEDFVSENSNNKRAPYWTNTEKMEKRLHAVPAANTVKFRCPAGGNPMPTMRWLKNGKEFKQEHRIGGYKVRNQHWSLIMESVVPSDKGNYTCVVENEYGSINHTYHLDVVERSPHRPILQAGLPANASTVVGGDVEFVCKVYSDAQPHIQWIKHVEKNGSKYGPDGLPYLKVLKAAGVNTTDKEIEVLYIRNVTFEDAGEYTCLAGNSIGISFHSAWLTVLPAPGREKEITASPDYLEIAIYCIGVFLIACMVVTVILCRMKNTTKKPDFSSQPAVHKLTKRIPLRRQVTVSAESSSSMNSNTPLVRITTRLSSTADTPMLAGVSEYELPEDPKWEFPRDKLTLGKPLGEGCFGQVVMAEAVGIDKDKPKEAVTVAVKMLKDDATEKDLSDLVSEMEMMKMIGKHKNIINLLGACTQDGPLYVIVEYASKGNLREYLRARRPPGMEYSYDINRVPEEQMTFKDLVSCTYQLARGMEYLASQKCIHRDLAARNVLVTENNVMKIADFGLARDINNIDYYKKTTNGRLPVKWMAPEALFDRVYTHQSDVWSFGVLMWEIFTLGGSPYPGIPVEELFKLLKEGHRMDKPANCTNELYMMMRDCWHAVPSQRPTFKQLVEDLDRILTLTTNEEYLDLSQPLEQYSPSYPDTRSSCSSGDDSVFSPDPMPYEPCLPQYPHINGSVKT
Protocol: as §1, §2, §3, §4, §5

CHK1 (h) = CHK1 (h) (Homo sapiens, UniProt O14757)
Chain of CHK1 (h) (O14757 whole entry): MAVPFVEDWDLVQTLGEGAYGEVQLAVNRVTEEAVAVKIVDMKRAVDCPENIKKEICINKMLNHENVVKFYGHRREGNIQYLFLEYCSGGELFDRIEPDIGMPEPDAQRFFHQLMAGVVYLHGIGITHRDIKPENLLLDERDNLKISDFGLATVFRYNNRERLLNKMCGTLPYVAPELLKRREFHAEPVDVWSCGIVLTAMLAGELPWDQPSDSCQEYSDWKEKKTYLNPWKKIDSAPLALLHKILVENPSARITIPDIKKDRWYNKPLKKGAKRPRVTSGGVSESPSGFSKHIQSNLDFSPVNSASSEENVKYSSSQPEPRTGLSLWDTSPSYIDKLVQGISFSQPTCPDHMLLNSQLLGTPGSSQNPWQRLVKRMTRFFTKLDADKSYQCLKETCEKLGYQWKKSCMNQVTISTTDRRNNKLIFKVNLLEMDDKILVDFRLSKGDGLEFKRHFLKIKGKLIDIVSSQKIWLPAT
Protocol: as §1, §2, §3, §4, §5

MNK2 (h) = MNK2 (h) (Homo sapiens, UniProt Q9HBH9)
Chain of MNK2 (h) (Q9HBH9 whole entry): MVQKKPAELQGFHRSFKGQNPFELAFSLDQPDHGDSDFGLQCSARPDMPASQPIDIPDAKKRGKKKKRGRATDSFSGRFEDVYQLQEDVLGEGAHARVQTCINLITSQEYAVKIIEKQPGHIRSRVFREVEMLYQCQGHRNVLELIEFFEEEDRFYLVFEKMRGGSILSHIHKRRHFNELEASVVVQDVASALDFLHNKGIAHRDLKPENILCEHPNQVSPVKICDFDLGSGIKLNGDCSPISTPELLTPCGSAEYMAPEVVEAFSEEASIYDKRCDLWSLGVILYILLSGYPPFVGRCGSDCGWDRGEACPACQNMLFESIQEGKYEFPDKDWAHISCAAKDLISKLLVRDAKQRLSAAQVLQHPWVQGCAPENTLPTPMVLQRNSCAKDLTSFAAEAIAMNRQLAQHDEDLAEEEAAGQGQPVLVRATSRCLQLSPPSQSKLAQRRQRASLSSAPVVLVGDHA
Protocol: as §1, §2, §3, §4, §5

EGFR kinase (h) = EGFR kinase (h) (Homo sapiens, UniProt P00533)
Chain of EGFR kinase (h) (P00533 25-1210): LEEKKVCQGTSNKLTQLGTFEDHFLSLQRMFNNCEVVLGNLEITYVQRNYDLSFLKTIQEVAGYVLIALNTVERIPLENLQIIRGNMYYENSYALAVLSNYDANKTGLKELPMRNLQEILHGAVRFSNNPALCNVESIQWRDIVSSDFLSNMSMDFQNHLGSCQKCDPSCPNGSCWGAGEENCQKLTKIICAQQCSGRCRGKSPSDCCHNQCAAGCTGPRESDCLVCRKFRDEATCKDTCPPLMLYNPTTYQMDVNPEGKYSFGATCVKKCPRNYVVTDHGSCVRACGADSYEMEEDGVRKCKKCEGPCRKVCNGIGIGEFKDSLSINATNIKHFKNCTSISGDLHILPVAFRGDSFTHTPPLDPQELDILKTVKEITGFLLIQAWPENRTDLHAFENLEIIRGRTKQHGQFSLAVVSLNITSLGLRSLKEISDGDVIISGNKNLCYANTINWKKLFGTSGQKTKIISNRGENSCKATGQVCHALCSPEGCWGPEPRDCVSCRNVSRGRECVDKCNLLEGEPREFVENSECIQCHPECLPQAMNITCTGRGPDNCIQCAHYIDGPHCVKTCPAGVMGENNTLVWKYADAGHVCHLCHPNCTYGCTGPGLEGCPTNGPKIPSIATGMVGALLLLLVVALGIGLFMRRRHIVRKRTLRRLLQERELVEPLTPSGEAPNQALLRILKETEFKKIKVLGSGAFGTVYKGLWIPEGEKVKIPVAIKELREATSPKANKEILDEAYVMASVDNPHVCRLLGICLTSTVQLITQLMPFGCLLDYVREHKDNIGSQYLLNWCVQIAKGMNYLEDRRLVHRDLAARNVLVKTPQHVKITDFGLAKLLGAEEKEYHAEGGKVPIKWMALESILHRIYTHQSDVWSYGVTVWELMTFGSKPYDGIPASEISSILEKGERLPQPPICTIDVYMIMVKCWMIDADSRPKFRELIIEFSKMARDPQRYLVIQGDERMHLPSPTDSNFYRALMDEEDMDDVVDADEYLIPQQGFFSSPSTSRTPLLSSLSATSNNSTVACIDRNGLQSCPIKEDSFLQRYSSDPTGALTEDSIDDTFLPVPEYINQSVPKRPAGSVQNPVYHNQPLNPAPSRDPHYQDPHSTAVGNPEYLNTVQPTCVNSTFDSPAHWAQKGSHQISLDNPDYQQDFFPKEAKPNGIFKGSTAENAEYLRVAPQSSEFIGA
Protocol: as §1, §2, §3, §4, §5

Akt1/PKBalpha (h) = Akt1/PKBalpha (h) (Homo sapiens, UniProt P31749)
Chain of Akt1/PKBalpha (h) (P31749 whole entry): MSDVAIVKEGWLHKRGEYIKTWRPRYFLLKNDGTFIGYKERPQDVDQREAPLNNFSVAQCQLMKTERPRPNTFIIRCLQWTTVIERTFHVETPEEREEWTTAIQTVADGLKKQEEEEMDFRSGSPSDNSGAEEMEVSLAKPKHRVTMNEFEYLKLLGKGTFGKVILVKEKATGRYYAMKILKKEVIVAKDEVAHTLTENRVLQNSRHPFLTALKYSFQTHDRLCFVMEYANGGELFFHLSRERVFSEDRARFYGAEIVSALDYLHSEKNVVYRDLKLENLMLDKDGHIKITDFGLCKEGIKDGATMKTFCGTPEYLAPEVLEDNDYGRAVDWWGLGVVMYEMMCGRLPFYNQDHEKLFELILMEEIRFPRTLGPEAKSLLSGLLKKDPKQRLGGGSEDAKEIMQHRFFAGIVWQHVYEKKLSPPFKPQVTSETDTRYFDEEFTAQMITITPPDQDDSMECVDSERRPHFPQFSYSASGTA
Protocol: as §1, §2, §3, §4, §5

NEK2 (h) = NEK2 (h) (Homo sapiens, UniProt P51955)
Chain of NEK2 (h) (P51955 whole entry): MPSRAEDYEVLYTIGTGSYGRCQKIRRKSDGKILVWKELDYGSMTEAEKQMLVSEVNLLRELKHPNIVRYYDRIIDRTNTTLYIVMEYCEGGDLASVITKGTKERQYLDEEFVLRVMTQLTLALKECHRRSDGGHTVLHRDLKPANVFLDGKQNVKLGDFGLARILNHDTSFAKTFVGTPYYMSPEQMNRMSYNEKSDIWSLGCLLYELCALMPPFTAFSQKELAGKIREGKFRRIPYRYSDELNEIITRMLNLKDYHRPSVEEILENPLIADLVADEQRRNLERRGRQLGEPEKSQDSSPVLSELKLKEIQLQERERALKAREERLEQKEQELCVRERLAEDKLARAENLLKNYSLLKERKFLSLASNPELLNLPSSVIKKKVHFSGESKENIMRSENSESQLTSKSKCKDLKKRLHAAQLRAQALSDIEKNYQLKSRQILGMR
Protocol: as §1, §2, §3, §4, §5

CaMK2alpha (h) = CaMK2alpha (h) (Homo sapiens, UniProt Q9UQM7)
Chain of CaMK2alpha (h) (Q9UQM7 whole entry): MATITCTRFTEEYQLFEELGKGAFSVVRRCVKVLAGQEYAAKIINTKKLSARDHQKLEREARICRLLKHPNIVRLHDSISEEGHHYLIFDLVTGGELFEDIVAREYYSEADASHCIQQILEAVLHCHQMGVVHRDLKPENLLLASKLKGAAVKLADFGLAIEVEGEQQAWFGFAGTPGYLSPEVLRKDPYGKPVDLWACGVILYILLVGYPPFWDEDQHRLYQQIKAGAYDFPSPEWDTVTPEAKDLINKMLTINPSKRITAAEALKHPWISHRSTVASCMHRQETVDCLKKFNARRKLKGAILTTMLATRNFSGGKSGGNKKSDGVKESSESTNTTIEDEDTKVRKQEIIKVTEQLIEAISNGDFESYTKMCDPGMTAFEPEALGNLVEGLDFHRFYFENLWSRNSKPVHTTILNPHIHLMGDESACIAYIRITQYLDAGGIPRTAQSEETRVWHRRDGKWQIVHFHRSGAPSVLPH
Protocol: as §1, §2, §3, §4, §5

EphA2 kinase (h) = EphA2 kinase (h) (Homo sapiens, UniProt P29317)
Protocol: as §1, §2, §3, §4, §5

CHK2 (h) = CHK2 (h) (Homo sapiens, UniProt O96017)
Chain of CHK2 (h) (O96017 whole entry): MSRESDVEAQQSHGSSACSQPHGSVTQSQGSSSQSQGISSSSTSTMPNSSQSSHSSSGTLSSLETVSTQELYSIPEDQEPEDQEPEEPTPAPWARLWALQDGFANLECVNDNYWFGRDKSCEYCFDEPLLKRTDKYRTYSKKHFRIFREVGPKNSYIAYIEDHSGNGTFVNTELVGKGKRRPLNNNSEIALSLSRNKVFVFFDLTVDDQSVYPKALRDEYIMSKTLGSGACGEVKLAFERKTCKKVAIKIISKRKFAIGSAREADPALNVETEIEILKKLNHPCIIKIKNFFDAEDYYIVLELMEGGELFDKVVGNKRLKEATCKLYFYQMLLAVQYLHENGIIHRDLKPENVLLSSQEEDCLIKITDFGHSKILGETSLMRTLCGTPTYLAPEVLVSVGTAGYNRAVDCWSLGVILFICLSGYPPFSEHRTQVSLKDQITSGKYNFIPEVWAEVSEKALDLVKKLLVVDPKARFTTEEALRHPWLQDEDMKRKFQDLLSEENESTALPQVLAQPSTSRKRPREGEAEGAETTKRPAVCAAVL
Protocol: as §1, §2, §3, §4, §5

SMILES: O=C(Nc1ccc(Nc2ccnc3ccccc23)cc1)c1cccc(Nc2ccnc3ccccc23)c1 [Compound 2a]
- inhibition at 10 µM (PKA (h)): 26%
- inhibition at 10 µM (FGFR2 kinase (h)): 1%
- inhibition at 10 µM (CHK1 (h)): 16%
- inhibition at 10 µM (MNK2 (h)): -6%
- inhibition at 10 µM (EGFR kinase (h)): 36%
- inhibition at 10 µM (Akt1/PKBalpha (h)): -178%
- inhibition at 10 µM (NEK2 (h)): -72%
- inhibition at 10 µM (CaMK2alpha (h)): -99%
- inhibition at 10 µM (EphA2 kinase (h)): -184%
- inhibition at 10 µM (CHK2 (h)): -195%
